Assay results reported in patent US20210292410A1, “TREATMENT PARADIGM FOR AN ANTI-CD19 ANTIBODY AND VENETOCLAX COMBINATION TREATMENT” (MorphoSys AG, priority 2017, published 2021).

What was measured:
CYP17 [1] = assay: Endocrine panel in prostate cancer patients treated with seviteronel or seviteronel and dexamethasone; assay type: in vivo, human; settings: seviteronel 600 mg once daily, FIG. 7
Description: (§1) Males that fulfill the Inclusion Criteria captured in Table 1 were administered seviteronel (600 mg; 4×150 mg tablets) once daily until any of the criteria in Table 2 are met. Table 3 captures the clinical screening data and screening schedule for the various screens for each of the male subjects.
as §1, with “tablets) and dexamethasone (0.5 mg)” for “tablets)”
(§2) Blood samples were collected for evaluation of steroid hormone changes as a pharmacodynamics indicator of CYP17 inhibition over time (e.g., DHEA, DHEA-S, androstenedione, testosterone, cortisol, corticosterone, progesterone, pregnenolone, estradiol, estrone and ACTH).

CYP17 [2] = assay: Endocrine panel (progesterone) in ER+ breast cancer patients; assay type: in vivo, human; settings: vs. patients treated with abiraterone and prednisone (Abi/Pred), FIG. 20
Description: as §1, with “Subjects” for “Males”, “4” for “1”, “mg for male subjects,” for “mg;”, “4×150 mg tablets; 450 mg for female subjects, 3×150” for “4×150”, “5” for “3”
Subjects that fulfill the Inclusion Criteria captured in Table 4 were administered seviteronel (600 mg for male subjects, 4×150 mg tablets; 450 mg for female subjects, 3×150 mg tablets) and dexamethasone (0.5 mg) once daily until any of the criteria in Table 2 are met. Table 5 captures the clinical screening data and screening schedule for the various screens for each of the male subjects.
as §2

CC(C)[C@](O)(c1ccc2cc(OC(F)F)c(OC(F)F)cc2c1)c1c[nH]nn1 [SEVI]
endocrine profile: "up-stream" steroids (CYP17 [1]): limited increase
endocrine profile: ACTH (CYP17 [1]): modest ACTH increase
endocrine profile: androgen (CYP17 [1]): modest androgen decline
endocrine profile: cortisol (CYP17 [1]): modest cortisol decrease
increase in progesterone (CYP17 [2]): lack of clinically relevant increases in progesterone
